Tests used:
[1] = Hydrolytic stability of acylated derivatives (data not shown); assay type: physicochemical
Description: A cursory study of the effect of capping the phenol of 4 via acylation was undertaken. The acylated derivatives 7 were prepared and tested. […] The intrinsic activity of intact 7a cannot yet be ruled out, and this interesting phenomenon is currently under study.

[2] = Uninfected mice dosed with compound alone (groups of the oocyst study); assay type: in vivo; settings: for Day of Death: challenge None; for symptoms of uninfected mice dosed with compound alone: 100 or 25 mg/kg oral gavage
Description: (§1) Thus, compounds 14a and 14b were tested for efficacy in a mouse model of T. gondii oocyst infection. The oocyst form of the parasite is excreted by cats and is often the form by which people and other animals become infected. This oocyst infection in mice is very virulent, and fatal. Mice were infected by oral gavage with ME49 or TgGoatUS4 oocysts. Mice were treated with either a high dose (100 mg/kg) or low dose (25 mg/kg) of 14a or 14b 1 mL suspension via oral gavage, or were not treated. […] Treatment with 14a and 14b increased survival by 1 day (Table 6, FIGS. 8 and 9).
Five groups of B7 female mice weighing approximately 25 g were used. Group 1 received only 14a (100 mg/kg, 2.5 mg/mL, 1.0 mL) by oral gavage. Group 2 received only 14a (25 mg/kg, 0.5 mg/mL, 1.0 mL) by oral gavage. Group 3 received 14a (100 mg/kg, 2.5 mg/mL, 1.0 mL) and 100 ME49 oocysts by oral gavage. Group 4 received 14a (25 mg/kg, 0.5 mg/mL, 1.0 mL) and 100 ME49 oocysts by oral gavage. Group 5 received only 100 ME49 oocysts by oral gavage.
Five groups of B7 female mice weighing approximately 25 g were used. Group 1 received only 14b (100 mg/kg, 2.5 mg/mL, 1.0 mL) by oral gavage. Group 2 received only 14b (25 mg/kg, 0.5 mg/mL, 1.0 mL) by oral gavage. Group 3 received 14b (100 mg/kg, 2.5 mg/mL, 1.0 mL) and 100 TgGoatUS4 oocysts by oral gavage. Group 4 received 14a (25 mg/kg, 0.5 mg/mL, 1.0 mL) and 100 TgGoatUS4 oocysts by oral gavage. Group 5 received only 100 TgGoatUS4 oocysts by oral gavage.

T. gondii Me-49 oocysts = test: Mouse model of T. gondii oocyst infection, Me-49; assay type: in vivo, mice
Description: (§2) Compounds 14a and 14b were tested for efficacy against T. gondii in the oocyst stage following per oral challenge in mice. Mice were infected by oral gavage with ME49 or TgGoatUS4 oocysts. Mice were treated with either 100 mg/kg or 25 mg/kg) of test substance.
as §1
(§3) HLA B07 transgenic mice were produced at Pharmexa-Epimmune (San Diego, Calif., USA) and bred at the University of Chicago. […]
(§4) Oocysts were obtained by feeding infected tissues of Swiss Webster mice to cats, sporulated in 2% sulfuric acid on a shaker for one week, and stored at 4° C. until used (Dubey 2010). Oocysts were counted in a disposable hemocytometer and diluted 10-fold from 10^−1 to 10^−7 to reach an end point of ≅1 oocyst. […]

[3] = test system: T. gondii TgGoatUS4 oocysts; test: Mouse model of T. gondii oocyst infection, TgGoatUS4; assay type: in vivo, mice
Description: as §2, §1, §3, §4

Row | SMILES | stability against hydrolysis [1] | Day of Death ([2]; 25 mg/kg oral gavage) | Day of Death ([2]; 100 mg/kg oral gavage) | symptoms of uninfected mice dosed with compound alone [2] | increase of survival (T. gondii Me-49 oocysts; Me-49 oocysts, 100 or 25 mg/kg) | survival of mice infected with T. gondii oocysts, in words (T. gondii Me-49 oocysts; mouse, in vivo) | increase of survival ([3]; TgGoatUS4 oocysts, 100 or 25 mg/kg) | survival of mice infected with T. gondii oocysts, in words ([3]; mouse, in vivo)
1 | O=C(Oc1ccc(Cl)cc1C(=O)Nc1ccc([N+](=O)[O-])cc1Cl)c1ccccc1 [Compound 7a, 4-chloro-2-((2-chloro-4-nitrophenyl)carbamoyl)phenyl benzoate] | hydrolytically labile under certain conditions |  |  |  |  |  |  | 
2 | CN(CC(=O)NN)C(=O)Oc1ccc(Cl)cc1C(=O)Nc1ccc([N+](=O)[O-])cc1Cl.Cl [Compound 14a, 4-chloro-2-((2-chloro-4-nitrophenyl)carbamoyl)phenyl (2-hydrazinyl-2-oxoethyl)(methyl)carbamate hydrochloride] |  | None | None | remained asymptomatic | 1 days | effective at prolonging slightly the survival |  | 
3 | CN(CC(=O)NN)C(=O)Oc1ccc(Cl)cc1C(=O)Nc1ccc(C(F)(F)F)cc1C(F)(F)F.Cl [Compound 14b, 2-((2,4-bis(trifluoromethyl)phenyl)carbamoyl)-4-chlorophenyl (2-hydrazinyl-2-oxoethyl)(methyl)carbamate hydrochloride] |  | None | None | remained asymptomatic |  |  | 1 days | effective at prolonging slightly the survival
